Reference: publication doi:10.1101/2025.01.28.635346v1 (bioRxiv, 2025)
Bridge positions count the residues as written; N and C are the ends. Side chains are listed from the residue outwards. Peptide text beside a SMILES is read from it. * marks the point of attachment. Butanoyl(4-(4-I-phenyl)) = O=C(CCCc1ccc(I)cc1)*; PEG2 = NCCOCCOCCC(=O)O

Experiments:
[1] = Solubility and aggregation; assay type: physicochemical
[2] = Pharmacokinetics in female Balb/c mice; assay type: in vivo, mouse
[3] = Pharmacokinetics in female Sprague-Dawley rats; assay type: in vivo, rat
NMDAR (1A/2B) = NMDAR (1A/2B) (Homo sapiens, UniProt Q05586+Q13224); experiment: Safetyscan47 Ion Channel, Opener; assay type: cell-based
[4] = Table S3B, IP 30 mg/kg, mouse, animal 2F001
[5] = Table S3B, IP 30 mg/kg, mouse, animal 2F002
[6] = Table S3B, IP 30 mg/kg, mouse, animal 2F003
[7] = Table S3B, IP 30 mg/kg, mouse, animal 2F004
[8] = Table S3B, IP 30 mg/kg, mouse, animal 2F005
[9] = Table S3B: IP 30 mg/kg, Mean N=5
[10] = Table S3D, IP 10 mg/kg, mouse, animal 1F001
[11] = Table S3D, IP 10 mg/kg, mouse, animal 1F002
[12] = Table S3D, IP 10 mg/kg, mouse, animal 1F003
[13] = Table S3D, IP 10 mg/kg, mouse, animal 1F004
[14] = Table S3D, IP 10 mg/kg, mouse, animal 1F005
[15] = Table S3D, SC 10 mg/kg, mouse, animal 2F001
[16] = Table S3D, SC 10 mg/kg, mouse, animal 2F002
[17] = Table S3D, SC 10 mg/kg, mouse, animal 2F003
[18] = Table S3D, SC 10 mg/kg, mouse, animal 2F004
[19] = Table S3D, SC 10 mg/kg, mouse, animal 2F005
[20] = female, Balb/c, mouse, plasma, ip, 10 mg/kg
[21] = female, Balb/c, mouse, plasma, ip, 30 mg/kg
[22] = female, Balb/c, mouse, plasma, sc, 10 mg/kg
[23] = female, Sprague-Dawley, rat, plasma, 30 mg/kg
[24] = female, Sprague-Dawley, rat, plasma, iv, 30 mg/kg

NMDAR (1A/2B), sequence (Q13224 27-1484, other chains not shown): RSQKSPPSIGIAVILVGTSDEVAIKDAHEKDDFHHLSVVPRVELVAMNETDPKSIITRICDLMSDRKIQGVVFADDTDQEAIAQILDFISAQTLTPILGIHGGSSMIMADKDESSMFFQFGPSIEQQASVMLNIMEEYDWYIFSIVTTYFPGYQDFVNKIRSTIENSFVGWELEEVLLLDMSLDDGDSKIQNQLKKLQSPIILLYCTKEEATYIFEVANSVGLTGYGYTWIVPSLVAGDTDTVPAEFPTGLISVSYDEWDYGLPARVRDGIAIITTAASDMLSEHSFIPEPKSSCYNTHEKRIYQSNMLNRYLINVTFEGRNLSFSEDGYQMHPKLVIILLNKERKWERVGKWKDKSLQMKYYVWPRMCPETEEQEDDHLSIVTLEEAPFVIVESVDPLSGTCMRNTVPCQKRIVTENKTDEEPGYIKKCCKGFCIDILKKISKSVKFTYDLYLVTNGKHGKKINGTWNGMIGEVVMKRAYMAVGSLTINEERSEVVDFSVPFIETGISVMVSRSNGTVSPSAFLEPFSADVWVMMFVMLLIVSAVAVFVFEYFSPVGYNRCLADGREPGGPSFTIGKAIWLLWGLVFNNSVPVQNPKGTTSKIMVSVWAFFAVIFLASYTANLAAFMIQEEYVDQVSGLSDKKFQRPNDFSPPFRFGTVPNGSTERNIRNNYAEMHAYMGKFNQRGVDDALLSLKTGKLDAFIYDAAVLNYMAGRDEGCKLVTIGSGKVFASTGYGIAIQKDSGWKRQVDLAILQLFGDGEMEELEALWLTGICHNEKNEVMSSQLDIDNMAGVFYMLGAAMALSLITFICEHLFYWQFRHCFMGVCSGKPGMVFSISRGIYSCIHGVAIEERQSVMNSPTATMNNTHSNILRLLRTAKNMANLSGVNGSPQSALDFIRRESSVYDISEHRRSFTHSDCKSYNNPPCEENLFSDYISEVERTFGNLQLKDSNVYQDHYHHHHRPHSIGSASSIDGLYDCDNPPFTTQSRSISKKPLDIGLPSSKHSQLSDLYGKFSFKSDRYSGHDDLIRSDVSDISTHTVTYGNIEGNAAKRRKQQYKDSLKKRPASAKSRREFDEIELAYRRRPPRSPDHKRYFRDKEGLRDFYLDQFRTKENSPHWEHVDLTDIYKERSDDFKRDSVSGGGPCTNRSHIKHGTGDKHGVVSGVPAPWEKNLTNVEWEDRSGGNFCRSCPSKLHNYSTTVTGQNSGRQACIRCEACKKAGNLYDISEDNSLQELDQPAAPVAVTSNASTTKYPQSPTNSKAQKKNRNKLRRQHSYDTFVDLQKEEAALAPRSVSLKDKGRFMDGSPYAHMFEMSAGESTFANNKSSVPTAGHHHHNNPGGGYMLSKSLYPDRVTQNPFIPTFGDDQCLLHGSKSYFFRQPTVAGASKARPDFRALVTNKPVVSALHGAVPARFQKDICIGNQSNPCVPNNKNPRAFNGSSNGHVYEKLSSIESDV

For `CC[C@H](C)[C@H](NC(=O)[C@H](CC(C)C)NC(=O)[C@H](CC(=O)O)NC(=O)CNC(=O)[C@H](CCCNC(=N)N)NC(=O)[C@@H](NC(=O)[C@H](Cc1ccccc1)NC(=O)[C@H](Cc1ccc(O)cc1)NC(=O)[C@@H]1CCC(=O)NCC(=O)NCC(=O)N[C@@H](CCCNC(=N)N)C(=O)NCC(=O)N[C@@H](Cc2c[nH]cn2)C(=O)N[C@@H](C(C)C)C(=O)N2CCC[C@H]2C(=O)N1)C(C)C)C(=O)N[C@@H](CO)C(=O)N[C@@H](Cc1ccccc1)C(=O)N[C@@H](Cc1ccc(O)cc1)C(=O)N[C@@H](CCCCNC(=O)CCOCCOCCNC(=O)CCCc1ccc(I)cc1)C(=O)O` [lassotide 47] (GGRGHVPEYFVRGDLISFYK([PEG2-Butanoyl(4-(4-I-phenyl))])-OH; lactam N-8), the “Solubility in DMSO” value ([1]; DMSO (text: also formulations containing 10-20% DMSO and PEG)) was greater than 200 mg/mL, the solubility ([1]; acetate buffer, pH 4.5, aqueous buffer) was no less than 30 mg/mL and the “improvement in t1/2 vs 36” value ([2]; 30 mg/kg IP, mice) was 9 fold. The “increase in AUC vs 36” value ([2]; 30 mg/kg IP, mice) was 39 fold, the Cl ([2]; Mouse, 30 mg/kg IP, mean) was 0.3 mL/min/kg and the Vz ([2]; Mouse, 30 mg/kg IP, mean) was 0.1 L/kg. It also gave an AUClast [2, 4] of 1750000, a CL/F [2, 4] of 0.271 and a Cmax [2, 4] of 167000. It also gave a Tmax [2, 4] of 2.0, a Vz/F [2, 4] of 118 and a t1/2 [2, 4] of 5.0. The AUClast [2, 5] was 1710000, the CL/F [2, 5] was 0.278 and the Cmax [2, 5] was 182000. For the same compound, the Tmax [2, 5] was 2.0, the Vz/F [2, 5] was 128 and the t1/2 [2, 5] was 5.3. For the same compound, the AUClast [2, 6] was 1270000, the CL/F [2, 6] was 0.356 and the Cmax [2, 6] was 96500. The Tmax [2, 6] was 4.0, the Vz/F [2, 6] was 215 and the t1/2 [2, 6] was 7.0. It also gave an AUClast [2, 7] of 1810000, a CL/F [2, 7] of 0.266 and a Cmax [2, 7] of 151000. For the same compound, the Tmax [2, 7] was 2.0, the Vz/F [2, 7] was 109 and the t1/2 [2, 7] was 4.7. For the same compound, the AUClast [2, 8] was 2150000, the CL/F [2, 8] was 0.219 and the Cmax [2, 8] was 231000. The Tmax [2, 8] was 4.0, the Vz/F [2, 8] was 105 and the t1/2 [2, 8] was 5.5. The Vz/F [2, 9] was 135, the t1/2 [2, 9] was 5.52 h and the AUCINF [2, 10] was 531 µg·h/mL. The AUClast [2, 10] was 517000 ng·h/mL, the CL/F [2, 10] was 0.314 mL/min/kg and the Cmax [2, 10] was 74800 ng/mL. It also gave a Tmax [2, 10] of 2.0 h, a Vz/F [2, 10] of 122 mL/kg and a t1/2 [2, 10] of 4.5 h. The AUCINF [2, 11] was 482 µg·h/mL, the AUClast [2, 11] was 468000 ng·h/mL and the CL/F [2, 11] was 0.346 mL/min/kg. The Cmax [2, 11] was 75600 ng/mL, the Tmax [2, 11] was 2.0 h and the Vz/F [2, 11] was 128 mL/kg. For the same compound, the t1/2 [2, 11] was 4.3 h, the AUCINF [2, 12] was 604 µg·h/mL and the AUClast [2, 12] was 587000 ng·h/mL. The CL/F [2, 12] was 0.276 mL/min/kg, the Cmax [2, 12] was 57500 ng/mL and the Tmax [2, 12] was 2.0 h. The Vz/F [2, 12] was 108 mL/kg, the t1/2 [2, 12] was 4.5 h and the AUCINF [2, 13] was 628 µg·h/mL. It also gave an AUClast [2, 13] of 603000 ng·h/mL, a CL/F [2, 13] of 0.265 mL/min/kg and a Cmax [2, 13] of 56300 ng/mL. For the same compound, the Tmax [2, 13] was 2.0 h, the Vz/F [2, 13] was 112 mL/kg and the t1/2 [2, 13] was 4.9 h. The AUCINF [2, 14] was 640 µg·h/mL, the AUClast [2, 14] was 631000 ng·h/mL and the CL/F [2, 14] was 0.260 mL/min/kg. The Cmax [2, 14] was 68400 ng/mL, the Tmax [2, 14] was 1.0 h and the Vz/F [2, 14] was 91.9 mL/kg. For the same compound, the t1/2 [2, 14] was 4.1 h, the AUCINF [2, 15] was 546 µg·h/mL and the AUClast [2, 15] was 528000 ng·h/mL. The CL/F [2, 15] was 0.305 mL/min/kg, the Cmax [2, 15] was 45700 ng/mL and the Tmax [2, 15] was 4.0 h. For the same compound, the Vz/F [2, 15] was 115 mL/kg, the t1/2 [2, 15] was 4.3 h and the AUCINF [2, 16] was 469 µg·h/mL. For the same compound, the AUClast [2, 16] was 455000 ng·h/mL, the CL/F [2, 16] was 0.355 mL/min/kg and the Cmax [2, 16] was 44700 ng/mL. The Tmax [2, 16] was 4.0 h, the Vz/F [2, 16] was 144 mL/kg and the t1/2 [2, 16] was 4.7 h. For the same compound, the AUCINF [2, 17] was 596 µg·h/mL, the AUClast [2, 17] was 567000 ng·h/mL and the CL/F [2, 17] was 0.280 mL/min/kg. It also gave a Cmax [2, 17] of 56800 ng/mL, a Tmax [2, 17] of 4.0 h and a Vz/F [2, 17] of 123 mL/kg. It also gave a t1/2 [2, 17] of 5.1 h, an AUCINF [2, 18] of 635 µg·h/mL and an AUClast [2, 18] of 609000 ng·h/mL. The CL/F [2, 18] was 0.262 mL/min/kg, the Cmax [2, 18] was 57900 ng/mL and the Tmax [2, 18] was 4.0 h. For the same compound, the Vz/F [2, 18] was 114 mL/kg, the t1/2 [2, 18] was 5.0 h and the AUCINF [2, 19] was 558 µg·h/mL. The AUClast [2, 19] was 541000 ng·h/mL, the CL/F [2, 19] was 0.299 mL/min/kg and the Cmax [2, 19] was 50000 ng/mL. For the same compound, the Tmax [2, 19] was 4.0 h, the Vz/F [2, 19] was 120 mL/kg and the t1/2 [2, 19] was 4.7 h. It also gave a t1/2 ([2]; Table S3D: IP 10 mg/kg, Mean N=5) of 4.46 h, an AUC(0-inf) [2, 20] of 577 µg·h/mL and an AUC(0-t) [2, 20] of 561 µg·h/mL. The CL/F [2, 20] was 0.292 mL/min/kg, the Cmax [2, 20] was 66500 ng/mL and the Tmax [2, 20] was 1.8 h. The Vd/F [2, 20] was 0.113 L/kg, the half-life [2, 20] was 4.5 h and the AUC(0-t) [2, 21] was 1740 µg·h/mL. The CL/F [2, 21] was 0.278 mL/min/kg, the Cmax [2, 21] was 166000 ng/mL and the Tmax [2, 21] was 2.8 h. It also gave an AUC(0-inf) [2, 22] of 561 µg·h/mL, an AUC(0-t) [2, 22] of 540 µg·h/mL and a CL/F [2, 22] of 0.3 mL/min/kg. For the same compound, the Cmax [2, 22] was 51000 ng/mL, the Tmax [2, 22] was 4 h and the Vd/F [2, 22] was 0.123 L/kg. The half-life [2, 22] was 4.75 h, the AUC(0-inf) [3, 23] was 2740 µg·h/mL and the C0 [3, 23] was 441 µg/mL. It also gave a Cmax [3, 23] of 369 µg/mL, an AUC(0-t) [3, 24] of 2360 µg·h/mL and a Tmax [3, 24] of 0.2 h. It also gave a Vd [3, 24] of 0.1 L/kg, a clearance [3, 24] of 0.2 mL/min/kg and a half-life [3, 24] of 8.5 h. The AUCINF ([3]; rat 30 mg/kg, animal 1M001) was 2670 µg·h/mL, the AUClast ([3]; rat 30 mg/kg, animal 1M001) was 2310 µg·h/mL and the C0 ([3]; rat 30 mg/kg, animal 1M001) was 383 µg/mL. It also gave a CL ([3]; rat 30 mg/kg, animal 1M001) of 0.187 mL/min/kg, a Cmax ([3]; rat 30 mg/kg, animal 1M001) of 327 µg/mL and a Vz ([3]; rat 30 mg/kg, animal 1M001) of 0.133 L/kg. It also gave a t1/2 ([3]; rat 30 mg/kg, animal 1M001) of 8.2 h, an AUCINF ([3]; rat 30 mg/kg, animal 1M002) of 2370 µg·h/mL and an AUClast ([3]; rat 30 mg/kg, animal 1M002) of 2110 µg·h/mL. It also gave a C0 ([3]; rat 30 mg/kg, animal 1M002) of 370 µg/mL, a CL ([3]; rat 30 mg/kg, animal 1M002) of 0.211 mL/min/kg and a Cmax ([3]; rat 30 mg/kg, animal 1M002) of 336 µg/mL. The Vz ([3]; rat 30 mg/kg, animal 1M002) was 0.144 L/kg, the t1/2 ([3]; rat 30 mg/kg, animal 1M002) was 7.9 h and the AUCINF ([3]; rat 30 mg/kg, animal 1M003) was 3180 µg·h/mL. It also gave an AUClast ([3]; rat 30 mg/kg, animal 1M003) of 2650 µg·h/mL, a C0 ([3]; rat 30 mg/kg, animal 1M003) of 571 µg/mL and a CL ([3]; rat 30 mg/kg, animal 1M003) of 0.157 mL/min/kg. It also gave a Cmax ([3]; rat 30 mg/kg, animal 1M003) of 443 µg/mL, a Vz ([3]; rat 30 mg/kg, animal 1M003) of 0.127 L/kg and a t1/2 ([3]; rat 30 mg/kg, animal 1M003) of 9.3 h. The EC50 (NMDAR (1A/2B)) was greater than 45 µM and the Emax (NMDAR (1A/2B); read-out: Max Response) was 3.52%.
